Source: US10844049B2, “GLP-1R agonists and uses thereof” (QILU REGOR THERAPEUTICS INC., priority 2018, dated 2020)

Legend:
GLP1R [1] = target: T1, GLP1R (Homo sapiens, UniProt P43220); test: GLP-1R/β-Arrestin recruitment assay (PathHunter eXpress GLP1R CHO-K1 β-Arrestin GPCR Assay); type: cell-based; parameters: host or cells: PathHunter CHO-K1 GLP1R β-Arrestin cells; conditions: averaged Bmax, percentage of control GLP-1 (7-37), highest concentration tested
Text: GLP-1R agonist activity with respect to β-arrestin recruitment can be determined with a cell-based functional assay using PathHuntcr eXpress GLP1R CHO-K1 β-Arrestin GPCR Assay kit (DiscovcrX Cat #93-0300E2CP0M).
The PathHunter β-Arrestin GPCR assay technology utilizes a β-galactosidase (β-gal) enzyme that is split into two fragments, the smaller Enzyme Donor (ED) and the larger Enzyme Acceptor (EA). These fragments can be fused to two proteins that may interact with each other, such as EA-β-Arrestin and ED-GLP-1R. The fusions can be stably expressed in a test cell line, such as the PathHunter CHO-K1 GLP1R β-Arrestin cells described below.
Independently, these fragment fusions have no β-gal activity; however, in solution or in a living cell, they can be brought together and complement to form an active β-gal enzyme due to the interaction between the fused proteins, thus generating a chemiluminescent signal in the presence of a suitable β-gal substrate.
In this experiment, PathHunter CHO-K1 GLP1R β-Arrestin cells from the assay kit were plated at a density of 1000 or 2000 cells/20 μl/well in a 384-well white/clear bottom plates (Greiner Cat #781098). Frozen cells were quickly thawed and 10 mL of cell plating medium (provided by the kit) was added to thawed cells. Cells were stored in a 37° C. incubator under 5% CO2 and kept for approximately 48 hours until ready to ran the assay.
Reference and test compounds were dissolved in 100% DMSO. 5× concentration of an agonist was prepared in serum free DMEM (Thermo Cat #11965). 5 μL of this solution was added to 20 μL cell medium in assay plate for a final top concentration of 10 μM. Plates were then incubated at 37° C. under 5% CO2 for 90 min.
Following 90 min incubation, detection reagents were made up by combining 1 part Galacton Star Substrate with 5 parts Emerald II™ Solution, and 19 parts of PathHunter Cell Assay Buffer, respectively. 12.5 μL detection reagent was added to each well. The plates were then incubated at room temperature in dark for 60 min. Plates were then read on Envision for 0.1 sec/well.
EC50 determinations were made from agonist dose-response curves analyzed with a curve fitting program using a 4-parameter logistic dose response equation.
Cells were plated at a density of 1000 or 2000 cells/20 μL/well. Frozen cells were quickly thawed and added to 10 mL of cell plating medium. Cells were stored in a 37° C. incubator under 5% CO2 and left for approximately 48 hours until ready to run the assay.
• 1) Reference agonist compound GLP1 (7-37): dissolved with DMSO to make 1 mM stock solutions, aliquoted and stored at −80° C. • 2) Test compounds (such as the compounds of the invention) came solubilized in 100% DMSO.
Prepare 10× concentration of an agonist in serum free DMEM, and add all solutions into the compound plate. 2.5 μL of this solution was added to 20 μL cell medium in assay plate for a final top concentration of 10 μM. Plates were incubated at 37° C. under 5% CO2 for 30 min. An additional 2.5 μL of Buffer was added to the entire plate for agonist mode and incubated at 37° C. for another 90 min.
Following 90 min incubation, detection reagents were made up as described. 12.5 μL was added to all wells. The plates were then incubated at room temperature in dark for 60 min. Plates were then read on Envision for 0.1 sec/well.
Data analysis: GraphPad Prism 6 was used for establishment of progression curve. EC50S or IC50s were determined by 4-parameter logistic dose response equation.

GLP1R [2] = target: T1, GLP1R; test: GLP1R cAMP assay, CHO cells stably expressing human GLP-1R; type: cell-based; conditions: CHO cells stably expressing GLP-1R, read-out: CHO cAMP stable EC50
Protocol: GLP-1R-mediated agonist activity was determined with a cell-based functional assay utilizing an HTRF (Homogeneous Time-Resolved Fluorescence) cAMP detection kit (cAMP Dynamic 2 Assay Kit; CisBio cat #62AM4PEC) that measures cAMP levels in the cell. The method is a competitive immunoassay between native cAMP produced by the cells and exogenous cAMP labeled with the dye d2. The tracer binding is visualized by a mAb anti-cAMP labeled with Cryptate. The specific signal (i.e., energy transfer) is inversely proportional to the concentration of cAMP in either standard or experimental sample.
Varying concentrations of each compound to be tested (in DMSO) were diluted in DMSO to obtain 200× compound working solution first and then 50 nl compounds were added to a white 384-well assay plate (Greiner 784075) with ECHO. The final DMSO concentration was 0.5%. The compound concentration range may be adjusted at any time.
Cells were removed from cryopreservation, re-suspended in 5 mL of Dulbecco's Phosphate Buffered Saline (DPBS-Sigma Cat # D8537) and centrifuged at 900 g for 5 min at 22° C. The cell pellet was then re-suspended in 1 mL of assay buffer [DPBS with 500 μM IBMX (Sigma #15879) and 0.1% BSA (Sigma # A1933). IBMX and BSA were freshly added on the day of assay]. A 10 μL sample of the cell suspension was counted on an Invitrogen Countess II to determine cell viability and cell count per mL. The remaining cell suspension was then adjusted with assay buffer to deliver 1000 viable cells per well using a Matrix Combi Multidrop reagent dispenser. 10 μL cell suspensions were added to each well of the assay plate which already contains compound. The plate was sealed and incubated at 37° C. with 5% CO2 for 30 minutes.
Following the 30 minute incubation, 5 μL of labeled d2 cAMP and 5 μL of anti-cAMP antibody (both diluted 1:20 in cell lysis buffer; as described in the manufacturer's assay protocol) were added to each well of the assay plate. The plates w ere then incubated at room temperature and after 60 minutes, changes in the HTRF signal were read with an Envision multi-label plate reader using excitation of 330 nm and emissions of 615 and 665 nm. Raw data were converted to nM cAMP by interpolation from a cAMP standard curve (as described in the manufacturer's assay protocol) and the percent effect was determined relative to a saturating concentration of the full agonist GLP-17-37 (10 nM) included on each plate. EC50 determinations were made from agonist dose-response curves analyzed with a curve fitting program using a 4-parameter logistic dose response equation. […]

T1 sequence (P43220 24-463): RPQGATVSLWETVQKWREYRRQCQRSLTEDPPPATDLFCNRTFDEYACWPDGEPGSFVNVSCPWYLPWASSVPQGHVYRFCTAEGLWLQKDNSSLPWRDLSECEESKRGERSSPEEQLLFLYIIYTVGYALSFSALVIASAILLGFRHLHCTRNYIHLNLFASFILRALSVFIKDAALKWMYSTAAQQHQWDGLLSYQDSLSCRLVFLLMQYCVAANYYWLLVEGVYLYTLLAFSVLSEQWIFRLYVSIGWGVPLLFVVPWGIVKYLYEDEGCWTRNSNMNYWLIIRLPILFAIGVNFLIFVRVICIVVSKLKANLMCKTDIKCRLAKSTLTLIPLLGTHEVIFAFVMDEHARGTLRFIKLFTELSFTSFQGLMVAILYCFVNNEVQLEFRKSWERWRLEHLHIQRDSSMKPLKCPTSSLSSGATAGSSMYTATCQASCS

SMILES	Bmax (POC) (GLP1R [1])	EC50 (GLP1R [2]) [µM]
O=C(O)c1ccc2nc(CN3CC=C(c4cccc(OCc5ccc(Cl)cc5F)n4)CC3)n(C[C@@H]3CCO3)c2c1 [Compound 221, (S)-2-((6-((4-chloro-2-fluorobenzyl)oxy)-3′,6′-dihydro-[2,4′-bipyridin]-1′(2′H)-yl)methyl)-1-(oxetan-2-ylmethyl)-1H-benzo[d]imidazole-6-carboxylic acid]	35.6 ± 5.38	≤ 0.015
O=C(O)c1ccc2nc(CN3CC=C(c4ccnc(OCc5ccc(Cl)cc5F)n4)CC3)n(C[C@@H]3CCO3)c2c1 [Compound 35, (S)-2-((4-(2-((4-chloro-2-fluorobenzyl)oxy)pyrimidin-4-yl)-3,6-dihydropyridin-1(2H)-yl)methyl)-1-(oxetan-2-ylmethyl)-1H-benzo[d]imidazole-6-carboxylic add]	19.9 ± 4.44	≤ 0.15
N#Cc1ccc(COc2cncc(C3CCN(Cc4nc5ccc(C(=O)O)cc5n4C[C@@H]4CCO4)CC3)n2)c(F)c1 [Compound 22, (S)-2-((4-(6-(4-cyano-2-fluorobenzyloxy)pyrazin-2-yl)piperidin-1-yl)methyl)-1-(oxetan-2-ylmethyl)-1 h-benzo[d]imidazole-6-carboxylic acid]	10.9 ± 0.0317	≤ 1
N#Cc1ccc(COc2cccc(C3=CCN(Cc4nc5ccc(C(=O)O)nc5n4C[C@@H]4CCO4)CC3)n2)c(F)c1 [Compound 225, (S)-2-((6-((4-cyano-2-fluorobenzyl)oxy)-3′,6′-dihydro-[2,4′-bipyridin]-1′(2′H)-yl)methyl)-3-(oxetan-2-ylmethyl)-3H-imidazo[4,5-b]pyridine-5-carboxylic add]	32.5 ± 3.55	≤ 0.015
O=C(O)c1ccc2nc(CN3CC=C(c4cccc(OCc5ccc(-c6cccnc6)cc5)n4)CC3)n(C[C@@H]3CCO3)c2c1 [Compound 242, (S)-1-(oxetan-2-ylmethyl)-2-((6-((4-(pyridin-3-yl)benzyl)oxy)-3′,6′-dihydro-[2,4′-bipyridin]-1′(2′H)-yl)methyl)-1H-benzo[d]imidazole-6-carboxylic add]	22.5 ± 4.32	–
O=C(O)c1ccc2nc(CN3CC=C(c4cccc(OCc5ccc(Cl)cc5F)c4)CC3)n(C[C@@H]3CCO3)c2n1 [Compound 224, (S)-2-((4-(3-((4-chloro-2-fluorobenzyl)oxy)phenyl)-3,6-dihydropyridin-1(2H)-yl)methyl)-3-(oxetan-2-ylmethyl)-3H-imidazo[4,5-b]pyridine-5-carboxylic acid]	33.4 ± 3.78	≤ 0.15
O=C(O)c1ccc2nc(CN3CC=C(c4ccc(F)c(OCc5ccc(Cl)cc5F)c4)CC3)n(C[C@@H]3CCO3)c2c1 [Compound 29, (S)-2-((4-(3-((4-chloro-2-fluorobenzyl)oxy)-4-fluorophenyl)-3,6-dihydropyridin-1(2H)-yl)methyl)-1-(oxetan-2-ylmethyl)-1 h-benzo[d]imidazole-6-carboxylic acid]	36.6 ± 7.77	≤ 0.15
O=C(O)c1ccc2nc(CN3CCC(c4cccc(OCc5ccc(Cl)cc5F)c4)CC3)n(C[C@@H]3CCO3)c2c1 [Compound 239, (S)-2-((4-(3-((4-chloro-2-fluorobenzyl)oxy)phenyl)piperidin-1-yl)methyl)-1-(oxetan-2-ylmethyl)-1H-benzo[d]imidazole-6-carboxylic acid]	25.6 ± 5.31	≤ 0.15
O=C(O)c1ccc2nc(CN3CC=C(c4cccc(OCc5ccc(Cl)cc5F)c4)CC3)n(C[C@@H]3CCO3)c2c1 [Compound 28, (S)-2-((4-(3-((4-chloro-2-fluorobenzyl)oxy)phenyl)-3,6-dihydropyridin-1(2H)-yl)methyl)-1-(oxetan-2-ylmethyl)-1 h-benzo[d]imidazole-6-carboxylic add]	28.5 ± 6.36	≤ 0.15
O=C(O)c1ccc2nc(CN3CC=C(c4ccc(F)c(OCc5ccc(Cl)cc5F)c4)CC3)n(C[C@@H]3CCO3)c2n1 [Compound 236, (S)-2-((4-(3-((4-chloro-2-fluorobenzyl)oxy)-4-fluorophenyl)-5,6-dihydropyridin-1(2H)-yl)methyl)-3-(oxetan-2-ylmethyl)-3H-imidazo[4,5-b]pyridine-5-carboxylic acid]	40.3 ± 4.10	≤ 0.15
O=C(O)c1ccc2nc(CN3CC=C(c4cccc(OCc5ccc(Cl)cc5F)c4)CC3)n(C[C@@H]3CCO3)c2c1F [Compound 237, (S)-2-((4-(3-((4-chloro-2-fluorobenzyl)oxy)phenyl)-3,6-dihydropyridin-1(2H)-yl)methyl)-7-fluoro-1-(oxetan-2-ylmethyl)-1H-benzo[d]imidazole-6-carboxylic acid]	37.9 ± 4.66	≤ 0.15
N#Cc1ccc(COc2nc(C3=CCN(Cc4nc5ccc(C(=O)O)cc5n4C[C@@H]4CCO4)CC3)ccc2F)c(F)c1 [Compound 222, (S)-2-((6-((4-cyano-2-fluorobenzyl)oxy)-5-fluoro-3′,6′-dihydro-[2,4′-bipyridin]-1′(2′H)-yl)methyl)-1-(oxetan-2-ylmethyl)-1H-benzo[d]imidazole-6-carboxylic acid]	31.1 ± 4.67	≤ 0.015
O=C(O)c1ccc2nc(CN3CCC(c4cncc(OCc5ccc(Cl)cc5F)n4)CC3)n(C[C@@H]3CCO3)c2c1 [Compound 21, (S)-2-((4-(6-(4-chloro-2-fluorobenzyloxy)pyrazin-2-yl)piperidin-1-yl)methyl)-1-(oxetan-2-ylmethyl)-1 h-benzo[d]imidazole-6-carboxylic acid]	19.0 ± 0.982	≤ 1
N#Cc1ccc(COc2cncc(C3=CCN(Cc4nc5ccc(C(=O)O)cc5n4C[C@@H]4CCO4)CC3)n2)c(F)c1 [Compound 23, (S)-2-((4-(6-(4-cyano-2-fluorobenzyloxy)pyrazin-2-yl)-5,6-dihydropyridin-1(2H)-yl)methyl)-1-(oxetan-2-ylmethyl)-1 h-benzo[d]imidazole-6-carboxylic acid]	18.2 ± 1.51	≤ 1
